37 compounds from patent US12384789B2, “Compounds for treating Huntington's disease” (PTC Therapeutics, Inc., priority 2017, dated 2025) can be followed below.

Each structure is given as a SMILES string.

The test deals with Endogenous Huntingtin Protein. In words: Endogenous Huntingtin Protein Assay (Meso Scale Discovery ELISA-based electrochemiluminescence). The format is cell-based. Particulars: MSD electrochemiluminescence, Table 1. Summed up: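 MSD electrochemiluminescence sandwich ELISA: MW1 (expanded polyQ) or MAB2166 capture antibody at 1 μg/mL, samples incubated overnight at 4° C. Detection with rabbit monoclonal #5656S then SULFO-TAG anti-rabbit antibody, each 0.25 μg/mL for 1 h at room temperature.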
For orientation: IC50 means the midpoint of a concentration-inhibition curve. A lower IC50 goes with inhibition by little substance. In the case of `Cn1cc2cc(-c3cc4c(F)cc(C5=CCNCC5)cc4nn3)cc(C#N)c2n1` [Compound 175, 5-[5-fluoro-7-(1,2,3,6-tetrahydropyridin-4-yl)cinnolin-3-yl]-2-methyl-2H-indazole-7-carbonitrile], the concentration for half-maximal inhibition (IC50) is at most 100 nM.
Regarding `Cc1cn2nc(-c3cc(F)c4cc(C5CCN(CCF)CC5)nnc4c3)cc(C)c2n1` [Compound 83, 7-(2,8-dimethylimidazo[1,2-b]pyridazin-6-yl)-5-fluoro-3-[1-(2-fluoroethyl)piperidin-4-yl]cinnoline], the IC50 is at most 100 nM.
Next, `Cn1nc2cc(-c3cc4c(F)cc(C5=CCNCC5)cc4nn3)cc(F)c2n1` [Compound 171, 5-fluoro-3-(7-fluoro-2-methyl-2H-benzotriazol-5-yl)-7-(1,2,3,6-tetrahydropyridin-4-yl)cinnoline]: at most 100 nM; `Cc1cc2cc(-c3cc(F)c4nc(C5CCNCC5)nnc4c3)cc(C)n2n1` [Compound 65, 7-(2,7-dimethylpyrazolo[1,5-a]pyridin-5-yl)-5-fluoro-3-(piperidin-4-yl)-1,2,4-benzotriazine]: 100 to 500 nM.
In the case of `Cc1cc2cc(-c3cc(F)c4cc(C5CCNCC5)nnc4c3)[nH]c2c(C)n1` [Compound 191, 7-(5,7-dimethyl-1H-pyrrolo[2,3-c]pyridin-2-yl)-5-fluoro-3-(piperidin-4-yl)cinnoline], the IC50 was 100 to 500 nM.
In turn, `Cc1cc2cc(-c3cc(F)c4cc(C5CCNCC5)nnc4c3)oc2c(C)n1` [Compound 146, 7-(5,7-dimethylfuro[2,3-c]pyridin-2-yl)-5-fluoro-3-(piperidin-4-yl)cinnoline] had an IC50 of at most 100 nM.
Next, `Cc1cn2nc(-c3ccc4nc(C5CCNCC5)ccc4c3)cc(C)c2n1` [Compound 19, 6-(2,8-dimethylimidazo[1,2-b]pyridazin-6-yl)-2-(piperidin-4-yl)quinoline]: at most 100 nM; `CCc1cc(-c2cc(F)c3cc(C4CCN(CC)CC4)nnc3c2)nn2cc(C)nc12` [Compound 121, 7-(8-ethyl-2-methylimidazo[1,2-b]pyridazin-6-yl)-3-(1-ethylpiperidin-4-yl)-5-fluorocinnoline]: at most 100 nM.
`Cc1cn2nc(-c3cc(F)c4cc(C5CCNCC5)nnc4c3)ccc2n1` [Compound 99, 5-fluoro-7-(2-methylimidazo[1,2-b]pyridazin-6-yl)-3-(piperidin-4-yl)cinnoline] yielded an IC50 of at most 100 nM.
Next, `Cn1cc2cc(-c3ccc4cc(C5=CCNCC5)cc(F)c4n3)cc(F)c2n1` [Compound 166, 8-fluoro-2-(7-fluoro-2-methyl-2H-indazol-5-yl)-6-(1,2,3,6-tetrahydropyridin-4-yl)quinoline]: at most 100 nM.
`Cn1cc2cc(-c3cc4c(F)cc(C5CCNCC5)cc4nn3)cc(F)c2n1` [Compound 151, 5-fluoro-3-(7-fluoro-2-methyl-2H-indazol-5-yl)-7-(piperidin-4-yl)cinnoline] showed an IC50 of at most 100 nM.
For `CCN1CCC(c2cc3c(F)cc(-c4cc(C5CC5)c5nc(C)cn5n4)cc3nn2)CC1` [Compound 115, 7-(8-cyclopropyl-2-methylimidazo[1,2-b]pyridazin-6-yl)-3-(1-ethylpiperidin-4-yl)-5-fluorocinnoline], the IC50 is at most 100 nM.
Next, `COc1cc(-c2cc(F)c3cc(C4CCNCC4)nnc3c2)nc2cn(C)nc12` [Compound 163, 5-fluoro-7-(7-methoxy-2-methyl-2H-pyrazolo[4,3-b]pyridin-5-yl)-3-(piperidin-4-yl)cinnoline]: at most 100 nM; `Cn1cc2cc(-c3ccc4nc(C5CCNCC5)cnc4c3)cc(C(F)(F)F)c2n1` [Compound 24, 6-[2-methyl-7-(trifluoromethyl)-2H-indazol-5-yl]-2-(piperidin-4-yl)quinoxaline]: 100 to 500 nM.
Next, `CCN1CCC(c2cc3c(F)cc(-c4cn5cc(C)nc(C)c5n4)cc3nn2)CC1` [Compound 119, 7-(6,8-dimethylimidazo[1,2-a]pyrazin-2-yl)-3-(1-ethylpiperidin-4-yl)-5-fluorocinnoline]: 500 to 1000 nM.
In the case of `CCN1CCC(c2cc3c(F)cc(-c4cc(OC)c5nc(C)cn5n4)cc3nn2)CC1` [Compound 111, 3-(1-ethylpiperidin-4-yl)-5-fluoro-7-(8-methoxy-2-methylimidazo[1,2-b]pyridazin-6-yl)cinnoline], the IC50 was at most 100 nM.
Turning to `Cc1cn2cc(-c3cc4c(F)cc(C5=CCNCC5)cc4nn3)cc(F)c2n1` [Compound 117, 5-fluoro-3-(8-fluoro-2-methylimidazo[1,2-a]pyridin-6-yl)-7-(1,2,3,6-tetrahydropyridin-4-yl)cinnoline], the IC50 is at most 100 nM.
As for `Cc1cn2nc(-c3cc(F)c4cc(N5CC6CC5CN6C)nnc4c3)cc(C)c2n1` (stereo not shown) [Compound 209, 7-(2,8-dimethylimidazo[1,2-b]pyridazin-6-yl)-5-fluoro-3-(5-methyl-2,5-diazabicyclo[2.2.1]heptan-2-yl)cinnoline], the figure is 100 to 500 nM.
As for `Cn1cc2cc(-c3nnc4cc(C5CCNCC5)ccc4n3)cc(F)c2n1` [Compound 25, 3-(7-fluoro-2-methyl-2H-indazol-5-yl)-7-(piperidin-4-yl)-1,2,4-benzotriazine], the figure is at most 100 nM; as for `Cc1cn2nc(-c3cc(F)c4cc(C5CCNCC5)nnc4c3)cc(CO)c2n1` [Compound 107, {6-[5-fluoro-3-(piperidin-4-yl)cinnolin-7-yl]-2-methylimidazo[1,2-b]pyridazin-8-yl}methanol], at most 100 nM; as for `Cc1cn2nc(-c3cc(F)c4cc(C5CCCNC5)nnc4c3)cc(C)c2n1` (stereo not shown) [Compound 216, 7-(2,8-dimethylimidazo[1,2-b]pyridazin-6-yl)-5-fluoro-3-(piperidin-3-yl)cinnoline], at most 100 nM.
Consider `Cc1cn2nc(-c3nnc4cc(C5CCNCC5)ccc4n3)cc(C)c2n1` [Compound 44, 3-(2,8-dimethylimidazo[1,2-b]pyridazin-6-yl)-7-(piperidin-4-yl)-1,2,4-benzotriazine], for which the IC50 lay within 100 to 500 nM.
As for `Cc1cn2nc(-c3cc(F)c4cc(N5CC6(CCNC6)C5)nnc4c3)cc(C)c2n1` [Compound 217, 3-(2,6-diazaspiro[3.4]octan-2-yl)-7-(2,8-dimethylimidazo[1,2-b]pyridazin-6-yl)-5-fluorocinnoline], the IC50 is at most 100 nM.
In turn, `Cc1nc(-c2cc(F)c3nc(C4CCNCC4)nnc3c2)cc2cn(C)nc12` [Compound 67, 7-(2,7-dimethyl-2H-pyrazolo[3,4-c]pyridin-5-yl)-5-fluoro-3-(piperidin-4-yl)-1,2,4-benzotriazine] came in with a half-maximal inhibitory concentration (IC50) of 100 to 500 nM.
`Cc1nc2c(C)cc(-c3cc(F)c4nc(C5CCNCC5)nnc4c3)cc2[nH]1` [Compound 63, 7-(2,4-dimethyl-1H-benzimidazol-6-yl)-5-fluoro-3-(piperidin-4-yl)-1,2,4-benzotriazine] showed an IC50 of at most 100 nM.
`Cc1cn2cc(-c3nnc4cc(C5CCNCC5)ccc4n3)cc(C)c2n1` [Compound 27, 3-(2,8-dimethylimidazo[1,2-a]pyridin-6-yl)-7-(piperidin-4-yl)-1,2,4-benzotriazine] had an IC50 of 100 to 500 nM.
As for `CCN1CCC(c2cc(F)c3cc(-c4cc(C)c5nn(C)cc5c4)nnc3c2)CC1` [Compound 183, 3-(2,7-dimethyl-2H-indazol-5-yl)-7-(1-ethylpiperidin-4-yl)-5-fluorocinnoline], the figure is at most 100 nM; as for `Cc1cn2nc(-c3cc(F)c4cc(N5CCC6(CC5)CNC6)nnc4c3)cc(C)c2n1` [Compound 219, 3-(2,7-diazaspiro[3.5]nonan-7-yl)-7-(2,8-dimethylimidazo[1,2-b]pyridazin-6-yl)-5-fluorocinnoline], at most 100 nM; as for `Cc1cn2nc(-c3cc(F)c4cc(C5CCN(C)CC5)nnc4c3)cc(CO)c2n1` [Compound 180, {6-[5-fluoro-3-(1-methylpiperidin-4-yl)cinnolin-7-yl]-2-methylimidazo[1,2-b]pyridazin-8-yl}methanol], at most 100 nM.
In the case of `Cc1nc2c(F)cc(-c3cc(F)c4nc(C5CCNCC5)nnc4c3)cc2o1` [Compound 68, 5-fluoro-7-(4-fluoro-2-methyl-1,3-benzoxazol-6-yl)-3-(piperidin-4-yl)-1,2,4-benzotriazine], the IC50 was at most 100 nM.
Compound `Cc1cn2nc(-c3cc(F)c4cc(C5CCN(CCF)CC5)nnc4c3)cc(C#N)c2n1` [Compound 179, 6-{5-fluoro-3-[1-(2-fluoroethyl)piperidin-4-yl]cinnolin-7-yl}-2-methylimidazo[1,2-b]pyridazine-8-carbonitrile] gave an IC50 of at most 100 nM.
For `CN(c1ccc2cc(-c3ccc4nn(C)cc4c3)ccc2n1)C1CC(C)(C)NC(C)(C)C1` [Compound 12, N-methyl-6-(2-methyl-2H-indazol-5-yl)-N-(2,2,6,6-tetramethylpiperidin-4-yl)quinolin-2-amine], the half-inhibitory concentration (IC50) fell in the range of 500 to 1000 nM.
In turn, `COc1cc(-c2cc(F)c3nc(C4CCNCC4)ccc3c2)nn2cc(C)nc12` [Compound 51, 8-fluoro-6-(8-methoxy-2-methylimidazo[1,2-b]pyridazin-6-yl)-2-(piperidin-4-yl)quinoline] registered an IC50 of at most 100 nM.
`CCN1CCC(c2cc3c(F)cc(-c4cc(C)c5nn(C)cc5n4)cc3nn2)CC1` [Compound 164, 7-(2,7-dimethyl-2H-pyrazolo[4,3-b]pyridin-5-yl)-3-(1-ethylpiperidin-4-yl)-5-fluorocinnoline] displayed an IC50 of at most 100 nM.
Consider `Cc1cn2nc(-c3cc(F)c4cc(N5CCC(N(C)C)C5)nnc4c3)cc(C)c2n1` (stereo not shown) [Compound 86, 1-[7-(2,8-dimethylimidazo[1,2-b]pyridazin-6-yl)-5-fluorocinnolin-3-yl]-N,N-dimethylpyrrolidin-3-amine], for which the IC50 is at most 100 nM.
As for `Cc1cn2nc(-c3cc(F)c4cc(C5CCN(CCO)CC5)nnc4c3)cc(C)c2n1` [Compound 75, 2-{4-[7-(2,8-dimethylimidazo[1,2-b]pyridazin-6-yl)-5-fluorocinnolin-3-yl]piperidin-1-yl}ethanol], the figure is at most 100 nM; as for `CCN1CCC(c2cc(F)c3cc(-c4cc(C)c5nc(C)cn5n4)nnc3c2)CC1` [Compound 186, 3-(2,8-dimethylimidazo[1,2-b]pyridazin-6-yl)-7-(1-ethylpiperidin-4-yl)-5-fluorocinnoline], at most 100 nM.
